Results: US8828988B2 (Tetraphase Pharmaceuticals, Inc., priority 2009, dated 2014)
≈ marks a conversion by molar mass, not a printed value. Where two headings read alike, the source gives them in different places.

Assays:
[1] = system: Staphylococcus aureus SA100, ATCC 13709, MSSA, Smith strain; experiment: MIC assay, SA100; type: cell-based; conditions: read-out: MIC SA100 13709
[2] = system: Escherichia coli EC155, tetracycline-resistant, tet(A); experiment: MIC assay, EC155; type: cell-based; conditions: read-out: MIC EC155 tetA
[3] = system: Acinetobacter baumannii AB110, ATCC 19606; experiment: MIC assay, AB110; type: cell-based
[4] = system: Enterobacter cloacae EC108, ATCC 13047; experiment: MIC assay, EC108; type: cell-based
[5] = system: Escherichia coli EC107, ATCC 25922; experiment: MIC assay, EC107; type: cell-based
[6] = system: Enterococcus faecalis EF159, tetracycline-resistant, tet(M); experiment: MIC assay, EF159; type: cell-based; conditions: read-out: MIC EF159 tetM
[7] = system: Klebsiella pneumoniae KP153, tetracycline-resistant, tet(A), MDR, ESBL+; experiment: MIC assay, KP153; type: cell-based; conditions: read-out: MIC KP153 tetA
[8] = system: Streptococcus pneumoniae SP106, ATCC 49619; experiment: MIC assay, SP106; type: cell-based
[9] = system: Staphylococcus aureus SA158, tetracycline-resistant tet(K); experiment: MIC assay, SA158; type: cell-based; conditions: read-out: MIC SA158 tetK
[10] = system: Staphylococcus aureus SA101, ATCC 29213, MSSA; experiment: MIC assay, SA101; type: cell-based; conditions: read-out: MIC SA101 29213
[11] = system: Staphylococcus aureus SA161, HA-MRSA, tetracycline-resistant, tet(M); experiment: MIC assay, SA161; type: cell-based; conditions: read-out: MIC SA161 MRSA, tetM
[12] = system: Streptococcus pneumoniae SP160, tetracycline-resistant, tet(M); experiment: MIC assay, SP160; type: cell-based; conditions: read-out: MIC SP160 tetM
[13] = system: Pseudomonas aeruginosa PA111, ATCC 27853; experiment: MIC assay, PA111; type: cell-based
[14] = system: Klebsiella pneumoniae KP109, ATCC 13883; experiment: MIC assay, KP109; type: cell-based; conditions: ATCC13883, read-out: MIC KP109 13883
[15] = system: Enterococcus faecalis EF103, ATCC 29212; experiment: MIC assay, EF103; type: cell-based; conditions: Enterococcus faecalis, ATCC29212, read-out: MIC EF103 29212
[16] = system: E. coli S30 extract system, coupled in vitro transcription/translation, firefly luciferase readout; experiment: In vitro transcription/translation (TnT) assay; type: biochemical
[17] = numeric values of control compounds
[18] = ATCC19606, read-out: MIC AB110 19606
[19] = ATCC13047, read-out: MIC EC108 13047
[20] = ATCC25922, read-out: MIC EC107 25922
[21] = ATCC49619, read-out: MIC SP106 49619
[22] = ATCC27853, read-out: MIC PA111 27853

SMILES | MIC [1] [µg/mL] | MIC [14] [µg/mL] | MIC [2] [µg/mL] | MIC [3, 18] [µg/mL] | MIC [4, 19] [µg/mL] | MIC [5, 20] [µg/mL] | MIC [6] [µg/mL] | MIC [7] [µg/mL] | MIC [8, 21] [µg/mL] | MIC [15] [µg/mL] | MIC [9] [µg/mL] | MIC [10] [µg/mL] | MIC [12] [µg/mL] | MIC [13, 22] [µg/mL] | other results
CN(C)c1ccc(O)c2c1C[C@H]1C[C@H]3[C@H](N(C)C)C(O)=C(C(N)=O)C(=O)[C@@]3(O)C(O)=C1C2=O [Mino., Minocycline, reference compound] | – | – | – | – | – | – | – | – | – | – | – | – | – | – | MIC [1, 17]: 0.06 µg/mL (≈ 0.131 µM); MIC [2, 17]: 8 µg/mL (≈ 17.5 µM); MIC ([3]; ATCC19606, numeric values of control compounds, read-out: MIC AB110 19606): 0.06 µg/mL (≈ 0.131 µM); MIC ([4]; ATCC13047, numeric values of control compounds, read-out: MIC EC108 13047): 2 µg/mL (≈ 4.37 µM); MIC ([5]; ATCC25922, numeric values of control compounds, read-out: MIC EC107 25922): 0.5 µg/mL (≈ 1.09 µM); MIC [6, 17]: 16 µg/mL (≈ 35 µM); MIC [7, 17]: 8 µg/mL (≈ 17.5 µM); MIC ([8]; ATCC49619, numeric values of control compounds, read-out: MIC SP106 49619): < 0.015 µg/mL; MIC [9, 17]: 0.03 µg/mL (≈ 0.0656 µM); MIC [10, 17]: 0.06 µg/mL (≈ 0.131 µM); MIC [11, 17]: 8 µg/mL (≈ 17.5 µM); MIC [12, 17]: 2 µg/mL (≈ 4.37 µM); MIC ([13]; ATCC27853, numeric values of control compounds, read-out: MIC PA111 27853): 16 µg/mL (≈ 35 µM)
CN(C)[C@@H]1C(O)=C(C(N)=O)C(=O)[C@@]2(O)C(O)=C3C(=O)c4c(O)cccc4C[C@H]3C[C@@H]12 [San., Sancycline, reference compound] | 1 (≈ 2.41 µM) | 8 (≈ 19.3 µM) | 32 (≈ 77.2 µM) | 0.25 (≈ 0.603 µM) | 8 (≈ 19.3 µM) | 8 (≈ 19.3 µM) | 8 (≈ 19.3 µM) | 32 (≈ 77.2 µM) | 0.25 (≈ 0.603 µM) | 8 (≈ 19.3 µM) | 4 (≈ 9.65 µM) | 0.5 (≈ 1.21 µM) | 8 (≈ 19.3 µM) | > 32 | –
CN(C)c1cc(NC(=O)CNC(C)(C)C)c(O)c2c1C[C@H]1C[C@H]3[C@H](N(C)C)C(O)=C(C(N)=O)C(=O)[C@@]3(O)C(O)=C1C2=O [Tige., Tigecycline, reference compound] | 0.06 (≈ 0.102 µM) | 0.125 (≈ 0.213 µM) | 0.5 (≈ 0.854 µM) | 0.25 (≈ 0.427 µM) | 0.25 (≈ 0.427 µM) | 0.03 (≈ 0.0512 µM) | 0.06 (≈ 0.102 µM) | 1 (≈ 1.71 µM) | 0.0156 (≈ 0.0266 µM) | 0.03 (≈ 0.0512 µM) | 0.06 (≈ 0.102 µM) | 0.06 (≈ 0.102 µM) | 0.0156 (≈ 0.0266 µM) | 8 (≈ 13.7 µM) | MIC [11]: 0.125 µg/mL (≈ 0.213 µM); TnT IC50 [16]: 0.3 µg/mL
